Results as given in patent US11572590B2, “Methods for evaluating tumor cell spheroids using 3D microfluidic cell culture device” (Dana-Farber Cancer Institute, Inc., priority 2017, dated 2023).
Read-outs that look alike come from different tables or passages of the source.

Columns and labels:
Experiment in all cases: SelectScreen Kinase Profiling, single point inhibition and IC50 for off-target kinases
Format in all cases: biochemical
off-target kinases [1] = molecular target: off-target kinases (Homo sapiens, UniProt O60674, V617F); settings: JAK2 JH1 JH2 V617F, ATP Km app, ZLYTE
off-target kinases (Homo sapiens, UniProt O60674, V617F), sequence (O60674 whole entry V617F): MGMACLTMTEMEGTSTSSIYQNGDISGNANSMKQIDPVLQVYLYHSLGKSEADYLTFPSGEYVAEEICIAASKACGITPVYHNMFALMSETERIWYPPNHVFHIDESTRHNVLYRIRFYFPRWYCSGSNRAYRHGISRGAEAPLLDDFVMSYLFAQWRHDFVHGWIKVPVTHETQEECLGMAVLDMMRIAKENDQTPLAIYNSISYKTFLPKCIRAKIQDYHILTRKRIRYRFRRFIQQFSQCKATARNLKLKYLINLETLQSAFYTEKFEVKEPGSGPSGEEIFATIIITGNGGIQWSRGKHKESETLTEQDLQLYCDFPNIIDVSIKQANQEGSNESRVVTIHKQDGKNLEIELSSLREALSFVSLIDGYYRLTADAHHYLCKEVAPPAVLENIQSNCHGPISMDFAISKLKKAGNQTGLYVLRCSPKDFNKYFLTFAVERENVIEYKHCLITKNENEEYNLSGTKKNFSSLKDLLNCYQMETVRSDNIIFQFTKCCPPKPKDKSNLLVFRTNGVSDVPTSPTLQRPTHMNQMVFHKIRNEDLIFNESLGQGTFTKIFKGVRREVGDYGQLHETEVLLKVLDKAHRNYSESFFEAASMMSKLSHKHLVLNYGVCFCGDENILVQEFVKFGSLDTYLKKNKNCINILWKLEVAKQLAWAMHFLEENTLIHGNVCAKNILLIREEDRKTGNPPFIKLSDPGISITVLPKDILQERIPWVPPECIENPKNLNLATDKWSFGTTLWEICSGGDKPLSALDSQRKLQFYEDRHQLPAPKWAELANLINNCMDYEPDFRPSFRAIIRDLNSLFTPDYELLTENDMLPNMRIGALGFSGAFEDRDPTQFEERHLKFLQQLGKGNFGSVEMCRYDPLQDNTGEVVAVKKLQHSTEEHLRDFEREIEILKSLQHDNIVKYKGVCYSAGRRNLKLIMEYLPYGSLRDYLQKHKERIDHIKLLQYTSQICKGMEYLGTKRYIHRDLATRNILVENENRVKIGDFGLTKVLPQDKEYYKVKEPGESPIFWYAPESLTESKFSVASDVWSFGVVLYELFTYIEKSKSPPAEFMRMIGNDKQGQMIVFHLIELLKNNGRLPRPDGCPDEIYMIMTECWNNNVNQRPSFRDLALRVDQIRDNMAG

off-target kinases [2] = molecular target: off-target kinases (Homo sapiens, UniProt P09619); settings: PDGFRB (PDGFR beta), ZLYTE, ATP Km app
off-target kinases (Homo sapiens, UniProt P09619), sequence (P09619 33-1106): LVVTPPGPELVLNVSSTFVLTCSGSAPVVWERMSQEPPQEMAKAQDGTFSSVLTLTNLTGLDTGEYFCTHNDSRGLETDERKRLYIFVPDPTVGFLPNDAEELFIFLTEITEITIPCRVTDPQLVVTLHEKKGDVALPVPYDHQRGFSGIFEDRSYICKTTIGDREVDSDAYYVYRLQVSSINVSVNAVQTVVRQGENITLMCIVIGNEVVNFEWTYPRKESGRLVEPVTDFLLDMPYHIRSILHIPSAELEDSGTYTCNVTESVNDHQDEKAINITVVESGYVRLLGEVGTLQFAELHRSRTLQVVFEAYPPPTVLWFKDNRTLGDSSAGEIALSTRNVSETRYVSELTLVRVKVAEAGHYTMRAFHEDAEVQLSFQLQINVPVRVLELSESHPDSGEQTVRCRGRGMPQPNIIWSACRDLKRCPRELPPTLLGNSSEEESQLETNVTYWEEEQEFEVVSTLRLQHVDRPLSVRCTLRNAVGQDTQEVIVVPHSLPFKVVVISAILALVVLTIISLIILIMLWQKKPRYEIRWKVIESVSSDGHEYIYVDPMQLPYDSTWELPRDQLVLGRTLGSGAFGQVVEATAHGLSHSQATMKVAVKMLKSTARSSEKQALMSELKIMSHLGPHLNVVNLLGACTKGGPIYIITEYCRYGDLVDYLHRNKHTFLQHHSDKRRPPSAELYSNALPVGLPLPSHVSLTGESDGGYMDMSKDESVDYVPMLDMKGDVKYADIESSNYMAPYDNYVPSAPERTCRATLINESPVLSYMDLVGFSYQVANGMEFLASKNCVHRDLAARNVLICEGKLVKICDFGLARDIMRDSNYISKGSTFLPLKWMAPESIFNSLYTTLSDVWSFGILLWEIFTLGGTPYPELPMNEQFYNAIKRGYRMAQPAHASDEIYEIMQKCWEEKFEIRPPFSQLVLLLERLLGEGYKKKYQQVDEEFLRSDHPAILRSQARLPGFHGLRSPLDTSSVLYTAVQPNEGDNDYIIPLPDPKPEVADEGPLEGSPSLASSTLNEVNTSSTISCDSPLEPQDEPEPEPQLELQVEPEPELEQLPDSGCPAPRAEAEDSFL

off-target kinases [3] = molecular target: off-target kinases (Homo sapiens, UniProt P23458); settings: JAK1, ZLYTE, ATP Km app
off-target kinases [4] = molecular target: off-target kinases (Homo sapiens, UniProt P53355); settings: DAPK1, ATP Km app, Adapta
off-target kinases (Homo sapiens, UniProt P53355), sequence (P53355 whole entry): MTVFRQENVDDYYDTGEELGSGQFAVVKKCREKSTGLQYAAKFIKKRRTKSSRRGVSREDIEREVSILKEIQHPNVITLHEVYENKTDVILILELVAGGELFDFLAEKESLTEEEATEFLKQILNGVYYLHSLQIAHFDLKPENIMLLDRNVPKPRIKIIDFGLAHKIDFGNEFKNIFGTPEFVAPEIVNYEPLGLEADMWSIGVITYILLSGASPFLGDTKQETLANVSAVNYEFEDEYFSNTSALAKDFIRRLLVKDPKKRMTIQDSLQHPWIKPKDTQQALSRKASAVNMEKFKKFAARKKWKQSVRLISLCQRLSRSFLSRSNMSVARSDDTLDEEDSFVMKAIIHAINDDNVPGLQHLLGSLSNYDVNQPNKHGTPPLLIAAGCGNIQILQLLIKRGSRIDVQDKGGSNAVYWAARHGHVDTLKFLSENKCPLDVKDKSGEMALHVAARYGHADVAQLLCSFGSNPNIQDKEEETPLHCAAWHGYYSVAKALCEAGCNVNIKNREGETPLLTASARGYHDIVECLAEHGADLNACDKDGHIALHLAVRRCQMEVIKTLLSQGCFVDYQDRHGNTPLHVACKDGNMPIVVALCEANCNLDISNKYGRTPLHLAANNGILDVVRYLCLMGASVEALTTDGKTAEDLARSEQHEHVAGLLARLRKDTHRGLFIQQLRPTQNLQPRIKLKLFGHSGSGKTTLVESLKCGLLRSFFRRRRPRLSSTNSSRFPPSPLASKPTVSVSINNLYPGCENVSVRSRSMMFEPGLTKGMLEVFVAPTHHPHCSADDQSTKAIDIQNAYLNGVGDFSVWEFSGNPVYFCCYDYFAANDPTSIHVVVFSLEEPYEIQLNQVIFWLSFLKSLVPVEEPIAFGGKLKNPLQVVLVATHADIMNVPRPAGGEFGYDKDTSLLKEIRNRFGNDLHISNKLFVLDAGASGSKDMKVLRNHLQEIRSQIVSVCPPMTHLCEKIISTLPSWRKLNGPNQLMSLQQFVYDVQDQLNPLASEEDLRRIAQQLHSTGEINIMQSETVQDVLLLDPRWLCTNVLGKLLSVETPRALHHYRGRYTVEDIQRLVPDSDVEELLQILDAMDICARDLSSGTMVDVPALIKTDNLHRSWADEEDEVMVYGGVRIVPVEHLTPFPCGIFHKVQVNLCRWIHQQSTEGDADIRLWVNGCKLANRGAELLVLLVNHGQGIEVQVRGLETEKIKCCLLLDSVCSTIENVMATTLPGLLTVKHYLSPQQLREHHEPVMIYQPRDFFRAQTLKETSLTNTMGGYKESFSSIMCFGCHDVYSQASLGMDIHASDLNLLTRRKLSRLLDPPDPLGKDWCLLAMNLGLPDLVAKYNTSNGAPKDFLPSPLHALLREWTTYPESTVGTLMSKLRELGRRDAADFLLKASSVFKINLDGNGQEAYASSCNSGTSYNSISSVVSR

off-target kinases [5] = molecular target: off-target kinases (Homo sapiens, UniProt Q00536); settings: CDK16 (PCTK1)/cyclin Y, LanthaScreen Binding
off-target kinases (Homo sapiens, UniProt Q00536), sequence (Q00536 whole entry): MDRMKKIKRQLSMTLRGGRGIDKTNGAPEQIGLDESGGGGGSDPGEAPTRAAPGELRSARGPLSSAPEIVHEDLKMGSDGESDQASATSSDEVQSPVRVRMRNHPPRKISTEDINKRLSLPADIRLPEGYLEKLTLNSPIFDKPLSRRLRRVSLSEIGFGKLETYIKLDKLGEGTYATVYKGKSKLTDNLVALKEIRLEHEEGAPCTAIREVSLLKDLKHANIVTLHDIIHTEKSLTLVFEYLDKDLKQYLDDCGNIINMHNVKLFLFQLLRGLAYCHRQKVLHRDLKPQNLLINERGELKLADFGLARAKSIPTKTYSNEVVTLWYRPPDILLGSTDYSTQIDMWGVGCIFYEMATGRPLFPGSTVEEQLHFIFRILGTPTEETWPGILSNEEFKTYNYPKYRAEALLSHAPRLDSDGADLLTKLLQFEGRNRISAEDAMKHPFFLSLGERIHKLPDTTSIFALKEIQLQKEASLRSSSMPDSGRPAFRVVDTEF

off-target kinases [6] = molecular target: off-target kinases (Homo sapiens, UniProt Q02750); settings: MAP2K1 (MEK1)
off-target kinases (Homo sapiens, UniProt Q02750), sequence (Q02750 whole entry): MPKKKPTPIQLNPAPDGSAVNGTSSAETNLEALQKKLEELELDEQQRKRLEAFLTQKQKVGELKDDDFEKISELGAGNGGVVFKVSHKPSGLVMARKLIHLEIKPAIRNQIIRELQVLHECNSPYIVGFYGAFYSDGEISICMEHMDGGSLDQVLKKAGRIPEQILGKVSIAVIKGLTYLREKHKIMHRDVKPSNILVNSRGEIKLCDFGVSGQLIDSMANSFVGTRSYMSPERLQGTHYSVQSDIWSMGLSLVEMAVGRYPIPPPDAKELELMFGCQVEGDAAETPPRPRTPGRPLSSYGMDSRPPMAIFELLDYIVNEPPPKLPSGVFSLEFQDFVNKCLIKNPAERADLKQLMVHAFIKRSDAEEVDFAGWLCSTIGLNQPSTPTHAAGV

off-target kinases [7] = molecular target: T1, off-target kinases (Homo sapiens, UniProt Q8NE63); settings: HIPK4, ZLYTE, ATP Km app
T1 sequence (Q8NE63 1-616): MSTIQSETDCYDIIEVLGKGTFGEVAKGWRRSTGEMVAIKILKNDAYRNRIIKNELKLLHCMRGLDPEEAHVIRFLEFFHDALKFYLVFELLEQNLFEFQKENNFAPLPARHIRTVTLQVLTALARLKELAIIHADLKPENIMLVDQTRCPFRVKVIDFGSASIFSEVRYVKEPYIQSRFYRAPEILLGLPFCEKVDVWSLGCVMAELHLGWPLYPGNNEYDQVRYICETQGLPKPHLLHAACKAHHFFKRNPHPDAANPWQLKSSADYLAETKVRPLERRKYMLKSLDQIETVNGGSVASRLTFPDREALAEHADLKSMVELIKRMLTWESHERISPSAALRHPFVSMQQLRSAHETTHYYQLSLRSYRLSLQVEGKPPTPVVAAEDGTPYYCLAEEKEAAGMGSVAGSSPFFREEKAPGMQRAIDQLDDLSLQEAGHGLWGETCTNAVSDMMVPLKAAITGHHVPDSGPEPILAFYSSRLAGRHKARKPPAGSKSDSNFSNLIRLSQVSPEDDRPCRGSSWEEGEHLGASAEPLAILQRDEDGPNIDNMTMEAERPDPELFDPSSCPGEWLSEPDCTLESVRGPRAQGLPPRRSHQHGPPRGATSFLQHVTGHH

off-target kinases [8] = molecular target: T2, off-target kinases (Homo sapiens, UniProt Q96PF2); settings: STK22B (TSSK2), ZLYTE, ATP Km app
T2 sequence (Q96PF2 1-358): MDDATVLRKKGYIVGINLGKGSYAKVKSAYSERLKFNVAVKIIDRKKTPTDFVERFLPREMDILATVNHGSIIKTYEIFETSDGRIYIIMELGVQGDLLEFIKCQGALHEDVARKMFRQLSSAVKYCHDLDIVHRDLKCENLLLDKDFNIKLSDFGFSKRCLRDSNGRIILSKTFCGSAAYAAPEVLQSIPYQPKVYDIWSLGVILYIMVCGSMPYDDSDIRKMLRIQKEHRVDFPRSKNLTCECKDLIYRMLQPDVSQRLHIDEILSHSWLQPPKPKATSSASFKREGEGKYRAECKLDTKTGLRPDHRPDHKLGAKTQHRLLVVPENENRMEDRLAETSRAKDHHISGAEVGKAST

Structure (SMILES): N#Cc1cc(-c2ncnc(Nc3ccc(N4CCN(C5COC5)CC4)cc3)n2)ccc1OC1CCOCC1 [Compound 1, 5-(4-((4-(4-(oxetan-3-yl)piperazin-1-yl)phenyl)amino)-1,3,5-triazin-2-yl)-2-((tetrahydro-2H-pyran-4-yl)oxy)benzonitrile]
- inhibition (off-target kinases [1]; read-out: % Inhibition 1): 54%
- inhibition (off-target kinases [1]; read-out: % Inhibition 2): 50%
- inhibition (off-target kinases [1]; read-out: % Inhibition Avg): 52%
- inhibition (off-target kinases [2]; read-out: % Inhibition 1): 34%
- inhibition (off-target kinases [2]; read-out: % Inhibition 2): 30%
- inhibition (off-target kinases [2]; read-out: % Inhibition Avg): 32%
- inhibition (off-target kinases [3]; read-out: % Inhibition 1): 11%
- inhibition (off-target kinases [3]; read-out: % Inhibition 2): 10%
- inhibition (off-target kinases [3]; read-out: % Inhibition Avg): 10%
- inhibition (off-target kinases [4]; read-out: % Inhibition 1): 42%
- inhibition (off-target kinases [4]; read-out: % Inhibition 2): 43%
- inhibition (off-target kinases [4]; read-out: % Inhibition Avg): 43%
- inhibition (off-target kinases [5]; read-out: % Inhibition 1): 70%
- inhibition (off-target kinases [5]; read-out: % Inhibition 2): 73%
- inhibition (off-target kinases [5]; read-out: % Inhibition Avg): 71%
- inhibition (off-target kinases [6]; LanthaScreen Binding, read-out: % Inhibition 1): 6%
- inhibition (off-target kinases [6]; LanthaScreen Binding, read-out: % Inhibition 2): 5%
- inhibition (off-target kinases [6]; LanthaScreen Binding, read-out: % Inhibition Avg): 5%
- inhibition (off-target kinases [6]; ZLYTE, ATP 100, read-out: % Inhibition 1): 7%
- inhibition (off-target kinases [6]; ZLYTE, ATP 100, read-out: % Inhibition 2): 3%
- inhibition (off-target kinases [6]; ZLYTE, ATP 100, read-out: % Inhibition Avg): 5%
- inhibition (off-target kinases [7]; read-out: % Inhibition 1): 18%
- inhibition (off-target kinases [7]; read-out: % Inhibition 2): 14%
- inhibition (off-target kinases [7]; read-out: % Inhibition Avg): 16%
- inhibition (off-target kinases [8]; read-out: % Inhibition 1): 12%
- inhibition (off-target kinases [8]; read-out: % Inhibition 2): 14%
- inhibition (off-target kinases [8]; read-out: % Inhibition Avg): 13%
